Source: patent US20240398819A1 (Rhode Island Hospital, priority 2023, published 2024)

Tests used:
[1] = tested on: fibrocytes from explanted human anterior cruciate ligament (ACL) specimens; test: Effects of relaxin-2 antagonist / receptor antagonist on cultured ACL cells from patients with ACL reconstruction (RT-PCR); format: cell-based; details: Folic Acid 10 μg/ml, NADH 100 μg/ml
Description: Measurements of expressions of MMP13, collagen 1A, collagen 3A, MMP3, and MMP1 in patient ACL tissues were conducted (FIG. 5). Biopsy tissues of the ACL from 20 patients (10 male and 10 female) who underwent surgeries for ACL reconstruction were harvested. The patients' ages ranged from 16 to 61 years, with equal numbers of males and females. The protocol for patient enrollment was approved by the IRB committee at our institution. […] After treatment, cells were lysed and analyzed for the expressions of type I collagen, type III collagen, MMP1, MMP3, and MMP13 using quantitative real-time polymerase chain reaction (RT-PCR). MMP13 expression (FIG. 5A); collagen 1A expression (FIG. 5B); collagen 3A expression (FIG. 5C); MMP3 expression (FIG. 5D); and MMP1 expression (FIG. 5E), all present the innovation. The protocol for patient enrollment was approved by the IRB committee at Rhode Island Hospital. GraphPad PRISM 8 software was used to perform all statistical analyses. Results were presented as mean+standard error of the mean (SEM) of different samples and considered significant when p<0.05. A t-test was used to compare any two groups, *p<0.05, **p<0.01, ***p<0.001 compared to their individual control group; ##p<0.01, compared to their individual relaxin-2 group.
Measurements of expressions of MMP13, collagen 1A, collagen 3A, MMP3, and MMP1 in patient ACL tissues were conducted (FIG. 5). Biopsy tissues of the ACL from 20 patients (10 male and 10 female) who underwent surgeries for ACL reconstruction were harvested. The patients' ages ranged from 16 to 61 years, with equal numbers of males and females. The protocol for patient enrollment was approved by the TRB committee at our institution.
After treatment, cells were lysed and analyzed for the expressions of type I collagen, type III collagen, MMP1, MMP3, and MMP13 using quantitative real-time polymerase chain reaction (RT-PCR). FIG. 5 provides expressions of MMP13, collagen 1A, collagen 3A, MMP3, and MMP1 in patient ACL tissues. (FIG. 5A) MMP13 expression; (FIG. 5B) collagen 1A expression; (FIG. 5C) collagen 3A expression; (FIG. 5D) MMP3 expression; (FIG. 5E) MMP1 expression. In FIG. 5, the protocol for patient enrollment was approved by the IRB committee at Rhode Island Hospital. GraphPad PRISM 8 software was used to perform all statistical analyses. Results were presented as mean+standard error of the mean (SEM) of different samples, and considered significant when p<0.05. A t-test was used to compare any two groups, *p<0.05, **p<0.01, ***p<0.001 compared to their individual control group; ##p<0.01, compared to their individual relaxin-2 group.

[2] = tested on: patient ACL cells; test: MMP gene expression (quantitative real-time RT-PCR) in cultured patient ACL cells treated with relaxin-2; format: cell-based, human
Description: Methods: Biopsy tissues of the ACL in the knee were collected from 20 patients with ACL reconstruction (ages ranging from 16 years to 61 years old, 10 males and 10 females). The normal ACLs were obtained from the rejected human knee osteochondral grafts from the Musculoskeletal Transplant Foundation (MTF) or the donors from MedCure (ages ranging from 24 years to 84 years old, 4 male and 4 females) were used as control samples. Immunohistochemistry was performed to detect the expression of RXFP2 and apoptosis. The number of RXFP2 positive and apoptotic positive cells were counted from six different fields for each patient. ACL cells were cultured in vitro, then cells were treated with relaxin-2 at different concentrations. After treatment, cells were lysed and analyzed for the expressions of MMP1 and MMP13 using quantitative real-time polymerase chain reaction. The protocol for patient enrollment was approved by the IRB committee at Rhode Island Hospital. GraphPad PRISM 8 software was used to perform all statistical analyses. Results were presented as mean±standard error of the mean (SEM) of different samples. Data were examined by one-way analysis of variance (ANOVA) with Tukey post-hoc multiple comparison. An unpaired t-test was used to compare any two groups. A value of p<0.05 was considered to be statically significant.
Patient ACL tissues were minced and digested with 1.0 mg/mL of type II collagenase at 37° C. at 5% CO2 in 2 mL Dulbecco's modified Eagle medium F12 (DMEM/F12, Gibco) containing 1% antibiotic-antimycotic (Gibco) for 12 hours. ACL cells were then filtered through a […] nylon mesh filter and collected by centrifugation. ACL cells were plated at a density of 1×10^5 cells/cm^2 in DMEM/F12 media supplemented with 10% fetal bovine serum (FBS, Gibco) and 1% antibiotic-antimycotic in 20 cm petri dishes for passage one. The media was changed twice a week. […]
RNA was isolated using TRIzol reagent and RNeasy Mini Kit from cultured ACL cells. RNA concentrations and purity were evaluated using a Nanodrop spectrophotometer (Thermo Scientific, Wilmington, DE, USA). A total of 1 μg of sample RNA was reverse transcribed using the Quantitect RT Kit (Qiagen, cDNA was synthesized from RNA using the iScript cDNA synthesis kit (Bio-Rad). RNA concentrations and purity were evaluated using a Nanodrop spectrophotometer (Thermo Scientific, Wilmington, DE, USA). Exactly 500 ng DNA was used as the template for real-time PCR analyses. Quantitative PCR reactions were performed using SYBR Green Fast Mix in a Bio-Rad real-time PCR machine. All Taqman primer and probe mixes were from Thermo Fisher Scientific (Waltham, MA, USA). Changes in the gene expressions of MMP1 and MMP13 were measured, which were normalized to GAPDH.

[3] = tested on: patient ACL cells; test: cAMP level (ELISA) in patient ACL cells after relaxin-2 treatment; format: cell-based, human; details: male and female ACL cells
Description: The detection of cAMP in samples was conducted using Abcam's cAMP Complete in vitro competitive Enzyme-Linked Immunosorbent Assay (ELISA) kit. Patient samples were first thawed from −80° C. and added to a 10% protease inhibitor in RIPA buffer (Thermo Scientific) solution for cell lysis. Each sample was then pipetted up and down 10 times with a syringe every 10 minutes over the course of 30 minutes. Next, the samples were centrifuged at 14,000 RPM for 5 minutes. The supernatant was then extracted from the pellet and stored at −80° C.
Following cell lysis and supernatant extraction, the total protein concentration of the samples was determined using a BCA protein assay. Albumin standards were prepared with the RIPA buffer and protease inhibitor. […] Standards and samples were then loaded in a 96 well plate with BCA reagent and was read in a plate reader at 570 nm to determine overall protein concentrations in samples. The concentrations of cAMP were determined using Abcam's ELISA kit. […] Stop solutions were added, and the plate was read at 405 nm with correction between 570 nm and 590 nm to determine cAMP concentrations. cAMP concentrations in pmol/mg were calculated by dividing the cAMP concentrations in pmol/mL by the total protein concentrations from the BCA protein assay in mg/mL.

[4] = 48 hour intravenous infusion, 30 μg/kg/day; compared with placebo group; cited from earlier work
[5] = tested on: ACL cells; test: Vitamin D effects on type I collagen and MMP13 gene expression in cultured ACL cells from patients (RT-PCR); format: cell-based, human; details: 3 days; for Type I collagen expression: vitamin D 1, 10 and 100 nmol/L
Description: Biopsy tissues of the ACL in the knee were collected from 20 patients with ACL reconstruction (ages ranging from 16 years to 61 years old, 10 males and 10 females). The ACL cells were cultured in vitro and treated with vitamin D at different concentrations for 3 days. Cells were then lysed and analyzed for expressions of type I collagen and MMP13 genes using quantitative real-time polymerase chain reaction. The protocol for patient enrollment was approved by the IRB committee at Rhode Island Hospital. GraphPad PRISM 8 software was used to perform all statistical analyses. Results were presented as mean±standard error of the mean (SEM) of different samples and considered significant when p<0.05. A t-test was used to compare any two groups. See Appendix II for data and further discussion.

[6] = male ACL cells, relaxin-2 treatments vs control groups

Nc1nc2ncc(CNc3ccc(C(=O)N[C@@H](CCC(=O)O)C(=O)O)cc3)nc2c(=O)[nH]1 [Folic acid]
MMP-13 expression [1]: significant decrease
collagen 1A expression [1]: significant increases
collagen 3A expression [1]: significant increases

NC(=O)C1=CN([C@@H]2O[C@H](COP(=O)(O)OP(=O)(O)OC[C@H]3O[C@@H](n4cnc5c(N)ncnc54)[C@H](O)[C@@H]3O)[C@@H](O)[C@H]2O)C=CC1 [NADH, nicotinamide adenine dinucleotide hydride]
MMP-13 expression [1]: significant decrease
collagen 1A expression [1]: significant increases
collagen 3A expression [1]: significant increases

relaxin-2
MMP13 expression ([2]; female ACL cells, 10 ng/mL of relaxin-2, vs untreated controls): increased
MMP1 expression ([2]; female ACL cells, 100 ng/mL of relaxin-2, vs untreated controls): increased
MMP1 expression [2, 6]: didn't significant change
MMP3 expression [2, 6]: didn't significant change
cAMP levels [3]: couldn't change

serelaxin
180-day mortality [4]: improvement
short-term dyspnea scores [4]: improvement

vitamin D
MMP13 gene expression ([5]; female cells, vitamin D 1 nmol/L): increased
MMP13 gene expression ([5]; female cells, vitamin D 10 nmol/L): reduced
Type I collagen expression ([5]; female cells): increased
MMP13 gene expression ([5]; male cells, vitamin D 1 nmol/L): increased
MMP13 gene expression ([5]; male cells, vitamin D 100 nmol/L): reduced
Type I collagen expression ([5]; male cells): not observed
